The record followed here is US8492346B2, “Methods of use of epsilon inhibitor compounds for the attenuation of pain” (KAI Pharmaceuticals, Inc., priority 2007, dated 2013).

A short description of series [1]: Plasma stability in human sera. In kind it is in vitro ADME. The following applies: plasma; human sera, 30 minutes. As for the experimental part: (§1) The plasma and chemical stability of various cargo/carrier peptide constructs described in Example 1 was tested. Plasma stability of the compounds was tested using both human and rat sera and the amount of starting material was determined after 30 minutes of treatment. Chemical stability was evaluated by determining the amount of starting material remaining after 9 days of treatment.
(§2) The plasma stability of various cargo/carrier peptide constructs described in Example 1 was tested using both human and rat sera and the amount of starting material was determined over time to 30 minutes of treatment. The time course data for cargo/carrier peptides KP-1586, KP-1630, and KP-1631 is shown in FIG. 3, the data for peptides KP-1632, KP-1633, and KP-1634 is shown in FIG. 4, and the data for peptides KP-1635, KP-1636, and KP-1637 is shown in FIG. 5.

Series [2] in a line: Plasma stability in rat sera. The series is classed as in vitro ADME. The settings on record: 30 minutes. As for the experimental part: as §1, §2
Series [3] can be described thus: Chemical stability of cargo/carrier peptide constructs. In kind it is physicochemical. As for the experimental part: as §1
The chemical stability of various cargo/carrier peptide constructs described in Example 1 was tested by examining the relative concentration of the peptides over a time period of more than 200 hours at 37° C.

`CC(=O)N[C@@H](CCSSC[C@H](NC(C)=O)C(=O)N[C@@H](CCC(=O)O)C(=O)N[C@@H](C)C(=O)N[C@H](C(=O)N[C@@H](CO)C(=O)N[C@@H](CC(C)C)C(=O)N[C@@H](CCCCN)C(=O)N1CCC[C@H]1C(=O)N[C@H](C(N)=O)[C@@H](C)O)C(C)C)C(=O)N[C@@H](Cc1ccc(O)cc1)C(=O)NCC(=O)N[C@@H](CCCNC(=N)N)C(=O)N[C@@H](CCCCN)C(=O)N[C@@H](CCCCN)C(=O)N[C@@H](CCCNC(=N)N)C(=O)N[C@@H](CCCNC(=N)N)C(=O)N[C@@H](CCC(N)=O)C(=O)N[C@@H](CCCNC(=N)N)C(=O)N[C@@H](CCCNC(=N)N)C(=O)N[C@@H](CCCNC(=N)N)C(=O)O` [KP-1637, Ac-C-E-A-V-S-L-K-P-T-NH2]: the results for the fraction remaining at 0.5 h in series [1] and in series [2] were 60% and 78%, respectively. For the same molecule, the “Chemical Stability % Remaining at 9 days” value in series [3] (9 days of treatment) turned out to be 100%. For the same molecule, in series [3] (more than 200 hours at 37° C., FIG. 6), the “Chemical stability, time course of relative concentration” value is listed as “marked stability”.

As a reminder, the amount remaining is what is left of the initial amount, in per cent. Low values mean a greater loss, high ones greater stability.
